According to US7994209B2, “3-phenoxymethylpyrrolidine compounds” (Theravance, Inc., priority 2009, dated 2011):

What was measured:
hSERT [1] = biological target: T1, hSERT (Homo sapiens, UniProt P31645); experiment: hSERT membrane radioligand binding assay (3H-citalopram), Assay 1; details: SERT pKi, hSERT HEK-293 membranes, 1.0 nM 3H-citalopram; values given as lower bounds
hNET [2] = biological target: T2, hNET (Homo sapiens, UniProt P23975); experiment: hNET neurotransmitter uptake assay (3H-NE), Assay 2; format: cell-based; parameters: expressed in transfected cells; host or cells: HEK-293; details: norepinephrine reuptake inhibition, 3H-NE uptake, HEK-293 hNET cells (values without asterisk); read-out: NET pIC50 (converted)
T2 sequence (P23975 whole entry): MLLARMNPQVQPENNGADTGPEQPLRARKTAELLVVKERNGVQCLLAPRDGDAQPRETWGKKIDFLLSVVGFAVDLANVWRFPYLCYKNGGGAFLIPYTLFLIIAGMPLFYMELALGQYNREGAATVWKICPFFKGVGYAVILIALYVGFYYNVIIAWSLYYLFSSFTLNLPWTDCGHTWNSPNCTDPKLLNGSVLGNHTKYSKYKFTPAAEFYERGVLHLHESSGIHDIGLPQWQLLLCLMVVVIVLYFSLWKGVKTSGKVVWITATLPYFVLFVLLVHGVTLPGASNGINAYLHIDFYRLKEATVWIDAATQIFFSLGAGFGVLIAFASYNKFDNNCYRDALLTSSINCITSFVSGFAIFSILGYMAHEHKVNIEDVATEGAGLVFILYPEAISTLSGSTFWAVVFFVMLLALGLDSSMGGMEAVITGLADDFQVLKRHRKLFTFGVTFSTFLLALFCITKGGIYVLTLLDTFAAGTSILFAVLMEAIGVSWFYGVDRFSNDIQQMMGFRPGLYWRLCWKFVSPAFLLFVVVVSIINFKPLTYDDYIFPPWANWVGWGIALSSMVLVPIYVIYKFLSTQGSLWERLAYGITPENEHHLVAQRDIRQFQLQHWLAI

hNET [3] = biological target: T2, hNET; experiment: hNET membrane radioligand binding assay (3H-nisoxetine), Assay 1
hSERT [4] = biological target: T1, hSERT; experiment: hSERT neurotransmitter uptake assay (3H-5-HT), Assay 2; format: cell-based; parameters: expressed in transfected cells; host or cells: HEK-293; details: serotonin reuptake inhibition, 3H-5-HT uptake, HEK-293 hSERT cells (values without asterisk); read-out: SERT pIC50 (converted)

T1 sequence (P31645 whole entry): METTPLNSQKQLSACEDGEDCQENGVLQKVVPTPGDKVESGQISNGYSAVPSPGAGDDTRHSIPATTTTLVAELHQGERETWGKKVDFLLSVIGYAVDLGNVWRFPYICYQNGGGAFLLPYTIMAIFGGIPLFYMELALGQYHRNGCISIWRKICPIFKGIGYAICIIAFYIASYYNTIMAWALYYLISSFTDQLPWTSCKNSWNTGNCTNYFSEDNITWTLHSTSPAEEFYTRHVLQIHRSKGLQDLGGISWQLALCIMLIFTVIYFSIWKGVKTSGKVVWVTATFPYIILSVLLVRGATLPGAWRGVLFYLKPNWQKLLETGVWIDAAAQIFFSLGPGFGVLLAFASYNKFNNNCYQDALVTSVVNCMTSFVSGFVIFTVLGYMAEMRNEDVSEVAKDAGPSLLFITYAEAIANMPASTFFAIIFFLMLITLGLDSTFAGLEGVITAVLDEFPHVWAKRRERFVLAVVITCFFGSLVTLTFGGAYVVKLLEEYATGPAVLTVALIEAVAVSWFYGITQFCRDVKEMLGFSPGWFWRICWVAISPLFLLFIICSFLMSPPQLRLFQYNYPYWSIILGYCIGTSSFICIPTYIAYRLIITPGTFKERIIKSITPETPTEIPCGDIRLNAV

Ki (hSERT [1]) [nM]	IC50 (hNET [2]) [nM]	Ki (hNET [3]) [nM]	IC50 (hSERT [4]) [nM]	SMILES
≤ 10	≤ 10	≤ 10	≤ 10	CC(C)C[C@H](Oc1ccc(Cl)cc1)[C@H]1CCNC1 [Example 10-13, (S)-3-[(S)-1-(4-Chlorophenoxy)-3-methylbutyl]pyrrolidine]
≤ 10	≤ 100	≤ 10	≤ 10	CC(C)CC(Oc1ccc(C(F)(F)F)cc1)C1CCNC1 (stereo not shown) [Example 10-15, 3-[3-Methyl-1-(4-trifluoromethylphenoxy)butyl]pyrrolidine]
≤ 10	≤ 10	≤ 10	≤ 10	CC(C)C[C@H](Oc1ccc(C(F)(F)F)cc1)[C@H]1CCNC1 [Example 10-16, (S)-3-[(S)-3-Methyl-1-(4-trifluoromethylphenoxy)butyl]pyrrolidine]
≤ 10	≤ 10	≤ 10	≤ 10	CC(C)C[C@@H](Oc1cccc(Cl)c1F)[C@H]1CCNC1 [Example 10-18, (S)-3-[(R)-1-(3-Chloro-2-fluorophenoxy)-3-methylbutyl]pyrrolidine]
≤ 10	≤ 10	≤ 10	≤ 10	CC(C)C[C@H](Oc1cccc(Cl)c1F)[C@H]1CCNC1 [Example 10-19, (S)-3-[(S)-1-(3-Chloro-2-fluorophenoxy)-3-methylbutyl]pyrrolidine]
≤ 10	≤ 100	≤ 10	≤ 100	CC(C)CC(Oc1cccc(C(F)(F)F)c1F)C1CCNC1 (stereo not shown) [Example 10-20, 3-[1-(2-Fluoro-3-trifluoromethylphenoxy)-3-methylbutyl]pyrrolidine]
≤ 10	≤ 10	≤ 10	≤ 10	CC(C)CC(Oc1cccc(Cl)c1Cl)C1CCNC1 (stereo not shown) [Example 10-22, 3-[1-(2,3-Dichlorophenoxy)-3-methylbutyl]pyrrolidine]
≤ 10	≤ 10	≤ 10	≤ 10	CC(C)C[C@@H](Oc1cccc(Cl)c1Cl)[C@H]1CCNC1 [Example 10-23, (S)-3-[(R)-1-(2,3-Dichlorophenoxy)-3-methylbutyl]pyrrolidine]
≤ 10	≤ 10	≤ 10	≤ 10	CC(C)C[C@H](Oc1cccc(F)c1Cl)[C@H]1CCNC1 [Example 10-25, (S)-3-[(S)-1-(2-Chloro-3-fluorophenoxy)-3-methylbutyl]pyrrolidine]
≤ 10	≤ 10	≤ 10	≤ 10	CC(C)C[C@@H](Oc1cccc(F)c1Cl)[C@H]1CCNC1 [Example 10-27, (S)-3-[(R)-1-(2-Chloro-3-fluorophenoxy)-3-methylbutyl]pyrrolidine]
≤ 10	≤ 10	≤ 10	≤ 10	CC(C)CC(Oc1cccc(C(F)(F)F)c1Cl)C1CCNC1 (stereo not shown) [Example 10-29, 3-[1-(2-Chloro-3-trifluoromethylphenoxy)-3-methylbutyl]pyrrolidine]
≤ 10	≤ 10	≤ 10	≤ 10	CC(C)C[C@H](Oc1cccc(C(F)(F)F)c1Cl)[C@H]1CCNC1 [Example 10-30, (S)-3-[(S)-1-(2-Chloro-3-trifluoromethylphenoxy)-3-methylbutyl]pyrrolidine]
≤ 10	≤ 10	≤ 10	≤ 10	Cc1c(Cl)cccc1O[C@H](CC(C)C)[C@H]1CCNC1 [Example 10-31, (S)-3-[(R)-1-(3-Chloro-2-methylphenoxy)-3-methylbutyl]pyrrolidine]
≤ 10	≤ 10	≤ 10	≤ 10	CC(C)CC(Oc1cccc(Cl)c1C(F)(F)F)C1CCNC1 (stereo not shown) [Example 10-35, 3-[1-(3-Chloro-2-trifluoromethylphenoxy)-3-methylbutyl]pyrrolidine]
≤ 10	≤ 10	≤ 10	≤ 10	CC(C)C[C@H](Oc1cccc(Cl)c1C(F)(F)F)[C@H]1CCNC1 [Example 10-36, (S)-3-[(S)-1-(3-Chloro-2-trifluoromethylphenoxy)-3-methylbutyl]pyrrolidine]
≤ 10	≤ 10	≤ 10	≤ 10	CC(C)CC(Oc1ccc(Cl)cc1F)C1CCNC1 (stereo not shown) [Example 10-39, 3-[1-(4-Chloro-2-fluorophenoxy)-3-methylbutyl]pyrrolidine]
≤ 10	≤ 10	≤ 10	≤ 10	CC(C)C[C@H](Oc1ccc(Cl)cc1F)[C@H]1CCNC1 [Example 10-41, (S)-3-[(S)-1-(4-Chloro-2-fluorophenoxy)-3-methylbutyl]pyrrolidine]

Ki (hSERT [1]) [nM]	IC50 (hNET [2]) [nM]	Ki (hNET [3]) [nM]	IC50 (hSERT [4]) [nM]	SMILES
≤ 10	≤ 10	≤ 10	≤ 10	CC(C)C[C@H](Oc1ccc(Cl)cc1Cl)[C@H]1CCNC1 [Example 10-42, (S)-3-[(S)-1-(2,4-Dichlorophenoxy)-3-methylbutyl]pyrrolidine]
≤ 10	≤ 10	≤ 100	≤ 10	CC(C)C[C@@H](Oc1ccc(Cl)cc1Cl)[C@H]1CCNC1 [Example 10-44, (S)-3-[(R)-1-(2,4-Dichlorophenoxy)-3-methylbutyl]pyrrolidine]
≤ 10	≤ 10	≤ 10	≤ 10	Cc1cc(Cl)ccc1O[C@H](CC(C)C)[C@H]1CCNC1 [Example 10-45, (S)-3-[(R)-1-(4-Chloro-2-methylphenoxy)-3-methylbutyl]pyrrolidine]
≤ 10	≤ 10	≤ 10	≤ 10	Cc1cc(Cl)ccc1O[C@@H](CC(C)C)[C@H]1CCNC1 [Example 10-47, (S)-3-[(S)-1-(4-Chloro-2-methylphenoxy)-3-methylbutyl]pyrrolidine]
≤ 10	≤ 10	≤ 10	≤ 10	CC(C)CC(Oc1ccc(Cl)cc1C(F)(F)F)C1CCNC1 (stereo not shown) [Example 10-48, 3-[1-(4-Chloro-2-trifluoromethylphenoxy)-3-methylbutyl]pyrrolidine]
≤ 10	≤ 10	≤ 10	≤ 10	COc1cc(Cl)ccc1O[C@@H](CC(C)C)[C@H]1CCNC1 [Example 10-49, (S)-3-[(S)-1-(4-Chloro-2-methoxyphenoxy)-3-methylbutyl]pyrrolidine]
≤ 10	≤ 10	≤ 10	≤ 100	COc1ccc(F)cc1O[C@@H](CC(C)C)[C@H]1CCNC1 [Example 10-50, (S)-3-[(S)-1-(5-Fluoro-2-methoxyphenoxy)-3-methylbutyl]pyrrolidine]
≤ 10	≤ 10	≤ 10	≤ 10	CC(C)C[C@H](Oc1c(F)cccc1Cl)[C@H]1CCNC1 [Example 10-52, (S)-3-[(S)-1-(2-Chloro-6-fluorophenoxy)-3-methylbutyl]pyrrolidine]
≤ 10	≤ 10	≤ 10	≤ 10	CC(C)CC(Oc1c(Cl)cccc1Cl)C1CCNC1 (stereo not shown) [Example 10-53, 3-[1-(2,6-Dichlorophenoxy)-3-methylbutyl]pyrrolidine]
≤ 10	≤ 10	≤ 10	≤ 10	CC(C)C[C@H](Oc1c(Cl)cccc1Cl)[C@H]1CCNC1 [Example 10-54, (S)-3-[(S)-1-(2,6-Dichlorophenoxy)-3-methylbutyl]pyrrolidine]
≤ 10	≤ 10	≤ 10	≤ 100	CC(C)C[C@H](Oc1cc(F)c(F)cc1F)[C@H]1CCNC1 [Example 10-57, (S)-3-[(S)-3-Methyl-1-(2,4,5-trifluorophenoxy)butyl]pyrrolidine]
≤ 10	≤ 10	≤ 10	≤ 10	CC(C)CC(Oc1c(Cl)ccc(Cl)c1F)C1CCNC1 (stereo not shown) [Example 10-58, 3-[1-(3,6-Dichloro-2-fluorophenoxy)-3-methylbutyl]pyrrolidine]
≤ 10	≤ 10	≤ 10	≤ 10	CC(C)CC(Oc1c(F)ccc(Cl)c1F)C1CCNC1 (stereo not shown) [Example 10-59, 3-[1-(3-Chloro-2,6-difluorophenoxy)-3-methylbutyl]pyrrolidine]
≤ 10	≤ 10	≤ 10	≤ 10	CC(C)C[C@H](Oc1ccc(Cl)c(Cl)c1F)[C@H]1CCNC1 [Example 10-61, (S)-3-[(S)-1-(3,4-Dichloro-2-fluorophenoxy)-3-methylbutyl]pyrrolidine]
≤ 10	≤ 10	≤ 10	≤ 10	CC(C)CC(Oc1c(F)ccc(F)c1Cl)C1CCNC1 (stereo not shown) [Example 10-62, 3-[1-(2-Chloro-3,6-difluorophenoxy)-3-methylbutyl]pyrrolidine]
≤ 10	≤ 10	≤ 10	≤ 10	CC(C)CC(Oc1c(F)ccc(Cl)c1Cl)C1CCNC1 (stereo not shown) [Example 10-64, 3-[1(2,3-Dichloro-6-fluorophenoxy)-3-methylbutyl]pyrrolidine]
≤ 10	≤ 10	≤ 10	≤ 10	CC(C)CC(Oc1c(F)cc(Cl)cc1F)C1CCNC1 (stereo not shown) [Example 10-66, 3-[1-(4-Chloro-2,6-difluorophenoxy)-3-methylbutyl]pyrrolidine]
